Source: US5308844A, “Substituted 3-piperazinylalkyl-2,3-dihydro-4H-1,3-benzoxazin-4-ones and their use in therapy” (Pierre Fabre Medicament, priority 1991, dated 1994)
pIC50: −log10 of the molar value. Structures can show the parent of a compound that is named as a salt.

Test system: not listed separately
Assay: solubility
Format: physicochemical
Settings: in DMSO

SMILES	soluble in DMSO up to
O=C1c2ccccc2OCN1CCN1CCN(c2cccc(Cl)c2)CC1 [Example 9, Hydrochloride of 2.3-dihydro-3-[2-(4-(3-chlorophenyl)piperazinyl)ethyl]-4H-1,3-benzoxazin-4-one]	up to 10%
COc1ccc2c(c1)C(=O)N(CCN1CCN(c3cccc(C(F)(F)F)c3)CC1)CO2 [Example 16, Hydrochloride of 2.6-dihydro-6-methoxy-3-[2-(4-(3-trifluoromethylphenyl)piperazinyl)ethyl]-4H-1,3-benzoxazin-4-one]	up to 7%
CC1Oc2ccccc2C(=O)N1CCN1CCN(c2cccc(C(F)(F)F)c2)CC1 (racemic) [Example 19, Hydrate of the (dl) hydrochloride of 2.3-dihydro-2-methyl-3-[2-(4-(3-trifluoromethylphenyl)piperazinyl)ethyl]-4H-1,3-benzoxazin-4-one]	up to 2%
COc1ccc(N2CCN(CCCCN3COc4cc(OC)c(OC)cc4C3=O)CC2)cc1OC [Example 18, Hydrochloride of 2.3-dihydro-6,7-dimethoxy-3-[4-(4-(3,4-dimethoxyphenyl)piperazinyl)butyl]-4H-1,3-benzoxazin-4-one]	up to 2%
O=C1c2ccccc2OCN1CCCCN1CCN(c2cccc(C(F)(F)F)c2)CC1 [Example 1, Monohydrochloric 3-dihydro-3-[4-(4-(3-trifluoromethylphenyl)piperazinyl)butyl]-4H-1,3-benzoxazin-4-one]	up to 6%
O=C1c2ccccc2OCN1CCN1CCN(c2cccc(C(F)(F)F)c2)CC1 [Example 10]	up to 7%
COc1ccccc1N1CCN(CCN2COc3ccc(C)cc3C2=O)CC1 [Example 13, Hydrochloride of 2.3-dihydro-6-methyl-3-[2-(4-(2-methoxyphenyl)piperazinyl)ethyl]-4H-1,3-benzoxazin-4-one]	up to 3%
COc1ccc2c(c1)C(=O)N(CCN1CCN(c3ccccc3OC)CC1)CO2 [Example 15, Hydrochloride of 6-methoxy-2,3-dihydro-3-[2-(4-(2-methoxyphenyl)piperazinyl)ethyl]-4H-1,3-benzoxazin-4-one]	up to 1.3%
COc1ccccc1N1CCN(CCN2COc3ccc(Cl)cc3C2=O)CC1 [Example 14, Hydrochloride of 6-chloro-2.3-dihydro-3-[2-(4-(2-methoxyphenyl)piperazinyl)ethyl]-4H-1,3-benzoxazin-4-one]	up to 1%

Same assay, conditions: in water

SMILES	soluble in water up to
COc1ccccc1N1CCN(CCN2COc3ccccc3C2=O)CC1 [Example 5 monohydrochloride]	up to 0.9%
COc1ccccc1N1CCN(CCN2COc3ccccc3C2=O)CC1 [Example 5, Dihydrochloride of 2,3-dihydro-3-[2-(4-(2-methoxyphenyl)piperazinyl)ethyl]-4H-1,3-benzoxazin-4-one]	up to 6%

Same assay, conditions: water, in water; read-out: soluble in water up to

SMILES	solubility
O=C1c2ccccc2OCN1CCN1CCN(c2ccccc2)CC1 [Example 3, Dihydrochloride of 2,3-dihydro-3-[2-(4-phenylpiperazinyl)ethyl]-4H-1,3-benzoxazin-4-one]	≤ 10000 µg/mL
O=C1c2ccccc2OCN1CCCN1CCN(c2ccccc2)CC1 [Example 2, Monohydrochloride of 2,3-dihydro-3-[3-(4-phenylpiperazinyl)propyl]-4H-1,3-benzoxazin-4-one]	≤ 10000 µg/mL
COc1ccccc1N1CCN(CCCCN2COc3ccccc3C2=O)CC1 [Example 7, Monohydrate of the dihydrochloride of 2,3-dihydro-3-[4-(4-(2-methoxyphenyl)piperazinyl)butyl]-4H-1,3-benzoxazin-4-one]	≤ 30000 µg/mL
COc1ccccc1N1CCN(CCCN2COc3ccccc3C2=O)CC1 [Example 6, Hydrochloride of 2,3-dihydro-3-[3-(4-(2-methoxyphenyl)piperazinyl)propyl]-4H-1,3-benzoxazin-4-one]	≤ 5000 µg/mL
O=C1c2ccccc2OCN1CCCCN1CCN(c2ccccc2)CC1 [Example 4, Hydrochloride of 2.3-dihydro-3-[4-(4-phenylpiperazinyl)butyl]-4H-1,3-benzoxazin-4-one]	≤ 5000 µg/mL
Cc1ccccc1N1CCN(CCN2COc3ccccc3C2=O)CC1 [Example 8, Monohydrochloride of 2,3-dihydro-3-[2-(4-(2-methylphenyl)piperazinyl)ethyl]-4H-1,3-benzoxazin-4-one]	≤ 3500 µg/mL
O=C1c2ccccc2OCN1CCN1CCN(c2ncccn2)CC1 [Example 12, Hydrochloride of 2,3-dihydro-3-[2-(4-(2-pyrimidinyl)piperazinyl)ethyl]-4H-1,3-benzoxazin-4-one]	≤ 12000 µg/mL
O=C1c2ccccc2OCN1CCN1CCN(c2ccccn2)CC1 [Example 11, Hydrochloride of 2,3-dihydro-3-[2-(4-(2-pyridinyl)piperazinyl)ethyl]-4H-1,3-benzoxazin-4-one]	≤ 3000 µg/mL
COc1cc2c(cc1OC)C(=O)N(CCCCN1CCN(c3ccccc3OC)CC1)CO2 [Example 17, Hydrochloride of 2.3-dihydro-6,7-dimethoxy-3-[4-(4-(2-methoxyphenyl)piperazinyl)butyl]-4H-1,3-benzoxazin-4-one]	≤ 2000 µg/mL

Target: T1, 5HT1 A receptors (Rattus norvegicus, UniProt P19327)
T1 construct: The hippocampus is ground in a Polytrone; from tissue; host or cells: rat hippocampus membranes (male Charles River rats)
T1 sequence (P19327 1-422): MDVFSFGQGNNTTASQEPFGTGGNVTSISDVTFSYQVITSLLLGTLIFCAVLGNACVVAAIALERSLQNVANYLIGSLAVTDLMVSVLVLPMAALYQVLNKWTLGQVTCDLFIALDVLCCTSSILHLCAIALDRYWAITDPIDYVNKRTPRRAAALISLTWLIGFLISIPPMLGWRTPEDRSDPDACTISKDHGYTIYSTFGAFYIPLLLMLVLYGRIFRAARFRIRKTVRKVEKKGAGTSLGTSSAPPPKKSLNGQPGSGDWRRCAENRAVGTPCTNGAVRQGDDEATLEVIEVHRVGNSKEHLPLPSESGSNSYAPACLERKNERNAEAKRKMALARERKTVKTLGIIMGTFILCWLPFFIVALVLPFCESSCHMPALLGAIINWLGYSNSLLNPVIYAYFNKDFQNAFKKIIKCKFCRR
Assay: 5HT1 A binding (3H-8-OH-DPAT, hippocampus membranes)
Design: species or system Male Charles River rats
Settings: 3H-8-OH-DPAT ligand 1 nM, 30 min at 25° C.
Procedure: The 5HT1 A binding studies were carried out according to the technique of Peroutka (cf. Peroutka S. J., J. Neurochem. 47, p. 529-40, 1986). Male Charles River rats are stunned and decapitated, and the brain is removed and dissected. The different cerebral areas obtained are used or preserved at […]. The hippocampus is ground in a Polytrone® (20 seconds at 7) in 20 volumes of 50 mM tris HCl buffer pH 7.7 at 25° C.) and centrifuged at 45000 g for 10 min. The pellet is separated, taken up in the same volume of tris buffer and incubated for 10 min at 37° C. and then recentrifuged for 10 min at 45000 g. The pellet is finally taken up in 100 volumes of tris HCl buffer containing 10 μM of pargyline, 4 mM of CaCl2 and 0.1% of ascorbic acid. The mixture obtained is homogenized in a Dounce.
The binding is carried out starting with 0.8 ml of the above membrane suspension to which 0.1 ml of ^3 H-8-OH-DPAT ligand (at a concentration of 1 nM) and either 0.1 ml of tris buffer (control) or the compound of the above invention is added. After incubation for 30 min at 25° C., the mixture is filtered on GF/B (Whatman) and rinsed with 5 ml of cold tris HCl buffer. The residue and the filter are then introduced into a vial containing 3 ml of Instagel liquid scintillant (Packard) and the radioactivity is measured in a Packard counter (Tri-Carbs).
The IC50 are determined graphically for a concentration of ligand of 1 nM.
Table I gives the IC50 for the 5HT1 A receptors for certain derivatives of the invention by way of nonlimiting example.

SMILES	pIC50
COc1ccccc1N1CCN(CCN2COc3ccccc3C2=O)CC1 [Example 5, Dihydrochloride of 2,3-dihydro-3-[2-(4-(2-methoxyphenyl)piperazinyl)ethyl]-4H-1,3-benzoxazin-4-one]	8.30
O=C1c2ccccc2OCN1CCCCN1CCN(c2cccc(C(F)(F)F)c2)CC1 [Example 1, Monohydrochloric 3-dihydro-3-[4-(4-(3-trifluoromethylphenyl)piperazinyl)butyl]-4H-1,3-benzoxazin-4-one]	8.15
COc1ccc2c(c1)C(=O)N(CCN1CCN(c3ccccc3OC)CC1)CO2 [Example 15, Hydrochloride of 6-methoxy-2,3-dihydro-3-[2-(4-(2-methoxyphenyl)piperazinyl)ethyl]-4H-1,3-benzoxazin-4-one]	8.66
COc1ccccc1N1CCN(CCN2COc3ccc(Cl)cc3C2=O)CC1 [Example 14, Hydrochloride of 6-chloro-2.3-dihydro-3-[2-(4-(2-methoxyphenyl)piperazinyl)ethyl]-4H-1,3-benzoxazin-4-one]	8.30
